PubChem BioAssay (NCI)
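Interpolation was linear, between the two tested concentrations surrounding the appropriate level; five concentrations were tested over 48 hours in 96-well plates. TGI marks complete inhibition of growth.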

Experiments:
Assay in all cases: NCI tumour cell line growth inhibition, 48 h
EKVX NSCLC = test system: EKVX NSCLC
UO-31 renal = test system: UO-31 renal
KM12 colon = test system: KM12 colon
OVCAR-8 ovarian = test system: OVCAR-8 ovarian
M19-MEL melanoma = test system: M19-MEL melanoma
HCC-2998 colon = test system: HCC-2998 colon
HCT-15 colon = test system: HCT-15 colon
SR leukemia = test system: SR leukemia
OVCAR-3 ovarian = test system: OVCAR-3 ovarian
KM20L2 colon = test system: KM20L2 colon
CCRF-CEM leukemia = test system: CCRF-CEM leukemia
MOLT-4 leukemia = test system: MOLT-4 leukemia
SK-MEL-28 melanoma = test system: SK-MEL-28 melanoma
SK-OV-3 ovarian = test system: SK-OV-3 ovarian
RXF-631 renal = test system: RXF-631 renal
TK-10 renal = test system: TK-10 renal
M14 melanoma = test system: M14 melanoma
LXFL 529 NSCLC = test system: LXFL 529 NSCLC
COLO 205 colon = test system: COLO 205 colon
K-562 leukemia = test system: K-562 leukemia
SW-620 colon = test system: SW-620 colon
NCI-H226 lung = test system: NCI-H226 lung
OVCAR-4 ovarian = test system: OVCAR-4 ovarian
NCI-H522 lung = test system: NCI-H522 lung
HL-60(TB) leukemia = test system: HL-60(TB) leukemia
RXF 393 renal = test system: RXF 393 renal
HOP-92 NSCLC = test system: HOP-92 NSCLC
U251 CNS = test system: U251 CNS
CAKI-1 renal = test system: CAKI-1 renal
UACC-62 melanoma = test system: UACC-62 melanoma
DMS 114 small cell lung = test system: DMS 114 small cell lung
XF 498 CNS = test system: XF 498 CNS
SN12C renal = test system: SN12C renal
MALME-3M melanoma = test system: MALME-3M melanoma
RPMI-8226 leukemia = test system: RPMI-8226 leukemia
SNB-75 CNS = test system: SNB-75 CNS
SF-539 CNS = test system: SF-539 CNS
IGROV1 ovarian = test system: IGROV1 ovarian
OVCAR-5 ovarian = test system: OVCAR-5 ovarian
NCI-H460 lung = test system: NCI-H460 lung
HCT-116 colon = test system: HCT-116 colon
DLD-1 colon = test system: DLD-1 colon
LOX IMVI melanoma = test system: LOX IMVI melanoma
NCI-H23 lung = test system: NCI-H23 lung
SF-268 CNS = test system: SF-268 CNS
UACC-257 melanoma = test system: UACC-257 melanoma
SF-295 CNS = test system: SF-295 CNS
HOP-18 NSCLC = test system: HOP-18 NSCLC
ACHN renal = test system: ACHN renal
A549 NSCLC = test system: A549 NSCLC
HOP-62 NSCLC = test system: HOP-62 NSCLC
DMS 273 small cell lung = test system: DMS 273 small cell lung
HT29 colon = test system: HT29 colon
SNB-78 CNS = test system: SNB-78 CNS
786-0 renal = test system: 786-0 renal
SK-MEL-2 melanoma = test system: SK-MEL-2 melanoma
SNB-19 CNS = test system: SNB-19 CNS
SK-MEL-5 melanoma = test system: SK-MEL-5 melanoma
A498 renal = test system: A498 renal

Compound: O=S(=O)(/C=C/c1ccc(F)cc1)Cc1ccc(CS(=O)(=O)/C=C/c2ccc(F)cc2)cc1
- TGI (EKVX NSCLC): > 100 µM
- TGI (UO-31 renal): > 100 µM
- TGI (KM12 colon): > 100 µM
- TGI (OVCAR-8 ovarian): > 100 µM
- TGI (M19-MEL melanoma): > 100 µM
- TGI (HCC-2998 colon): > 100 µM
- TGI (HCT-15 colon): > 100 µM
- TGI (SR leukemia): > 100 µM
- TGI (OVCAR-3 ovarian): > 100 µM
- TGI (KM20L2 colon): > 100 µM
- TGI (CCRF-CEM leukemia): > 100 µM
- TGI (MOLT-4 leukemia): > 100 µM
- TGI (SK-MEL-28 melanoma): > 100 µM
- TGI (SK-OV-3 ovarian): > 100 µM
- TGI (RXF-631 renal): > 100 µM
- TGI (TK-10 renal): > 100 µM
- TGI (M14 melanoma): > 100 µM
- TGI (LXFL 529 NSCLC): > 100 µM
- TGI (COLO 205 colon): > 100 µM
- TGI (K-562 leukemia): > 100 µM
- TGI (SW-620 colon): > 100 µM
- TGI (NCI-H226 lung): > 100 µM
- TGI (OVCAR-4 ovarian): > 100 µM
- TGI (NCI-H522 lung): > 100 µM
- TGI (HL-60(TB) leukemia): > 100 µM
- TGI (RXF 393 renal): > 100 µM
- TGI (HOP-92 NSCLC): > 100 µM
- TGI (U251 CNS): > 100 µM
- TGI (CAKI-1 renal): > 100 µM
- TGI (UACC-62 melanoma): > 100 µM
- TGI (DMS 114 small cell lung): > 100 µM
- TGI (XF 498 CNS): > 100 µM
- TGI (SN12C renal): > 100 µM
- TGI (MALME-3M melanoma): > 100 µM
- TGI (RPMI-8226 leukemia): > 100 µM
- TGI (SNB-75 CNS): > 100 µM
- TGI (SF-539 CNS): > 100 µM
- TGI (IGROV1 ovarian): > 100 µM
- TGI (OVCAR-5 ovarian): > 100 µM
- TGI (NCI-H460 lung): > 100 µM
- TGI (HCT-116 colon): > 100 µM
- TGI (DLD-1 colon): > 100 µM
- TGI (LOX IMVI melanoma): > 100 µM
- TGI (NCI-H23 lung): > 100 µM
- TGI (SF-268 CNS): > 100 µM
- TGI (UACC-257 melanoma): > 100 µM
- TGI (SF-295 CNS): > 100 µM
- TGI (HOP-18 NSCLC): > 100 µM
- TGI (ACHN renal): > 100 µM
- TGI (A549 NSCLC): > 100 µM
- TGI (HOP-62 NSCLC): > 100 µM
- TGI (DMS 273 small cell lung): > 100 µM
- TGI (HT29 colon): > 100 µM
- TGI (SNB-78 CNS): > 100 µM
- TGI (786-0 renal): > 100 µM
- TGI (SK-MEL-2 melanoma): > 100 µM
- TGI (SNB-19 CNS): > 100 µM
- TGI (SK-MEL-5 melanoma): > 100 µM

Compound: C[C@H](OCc1ccccc1)C(=O)N1CCS(=O)(=O)N2CCC[C@@H]2C1=O
- TGI (EKVX NSCLC): > 100 µM
- TGI (UO-31 renal): > 100 µM
- TGI (KM12 colon): > 100 µM
- TGI (OVCAR-8 ovarian): > 100 µM
- TGI (M19-MEL melanoma): > 100 µM
- TGI (HCC-2998 colon): > 100 µM
- TGI (HCT-15 colon): > 100 µM
- TGI (SR leukemia): > 100 µM
- TGI (OVCAR-3 ovarian): > 100 µM
- TGI (KM20L2 colon): > 100 µM
- TGI (CCRF-CEM leukemia): > 100 µM
- TGI (MOLT-4 leukemia): > 100 µM
- TGI (SK-MEL-28 melanoma): > 100 µM
- TGI (SK-OV-3 ovarian): > 100 µM
- TGI (RXF-631 renal): > 100 µM
- TGI (TK-10 renal): > 100 µM
- TGI (M14 melanoma): > 100 µM
- TGI (LXFL 529 NSCLC): > 100 µM
- TGI (COLO 205 colon): > 100 µM
- TGI (K-562 leukemia): > 100 µM
- TGI (SW-620 colon): > 100 µM
- TGI (NCI-H226 lung): > 100 µM
- TGI (OVCAR-4 ovarian): > 100 µM
- TGI (NCI-H522 lung): > 100 µM
- TGI (HL-60(TB) leukemia): > 100 µM
- TGI (RXF 393 renal): > 100 µM
- TGI (HOP-92 NSCLC): > 100 µM
- TGI (U251 CNS): > 100 µM
- TGI (CAKI-1 renal): > 100 µM
- TGI (UACC-62 melanoma): > 100 µM
- TGI (DMS 114 small cell lung): > 100 µM
- TGI (XF 498 CNS): 94.7 µM
- TGI (SN12C renal): > 100 µM
- TGI (MALME-3M melanoma): > 100 µM
- TGI (RPMI-8226 leukemia): > 100 µM
- TGI (SNB-75 CNS): > 100 µM
- TGI (SF-539 CNS): > 100 µM
- TGI (IGROV1 ovarian): > 100 µM
- TGI (OVCAR-5 ovarian): > 100 µM
- TGI (NCI-H460 lung): > 100 µM
- TGI (HCT-116 colon): > 100 µM
- TGI (DLD-1 colon): > 100 µM
- TGI (LOX IMVI melanoma): > 100 µM
- TGI (NCI-H23 lung): > 100 µM
- TGI (SF-268 CNS): > 100 µM
- TGI (UACC-257 melanoma): > 100 µM
- TGI (SF-295 CNS): > 100 µM
- TGI (HOP-18 NSCLC): > 100 µM
- TGI (ACHN renal): > 100 µM
- TGI (A549 NSCLC): > 100 µM
- TGI (HOP-62 NSCLC): > 100 µM
- TGI (A498 renal): > 100 µM
- TGI (HT29 colon): > 100 µM
- TGI (SNB-78 CNS): > 100 µM
- TGI (786-0 renal): > 100 µM
- TGI (SNB-19 CNS): > 100 µM
- TGI (SK-MEL-5 melanoma): > 100 µM
